# In patent US20260337208A1, “HETEROCYCLIC DERIVATIVES AS JANUS KINASE INHIBITORS” (CHIESI FARMACEUTICI S.P.A., priority 2022, published 2026):
# pIC50: −log10 of the molar value.
# Legend:
# TYK2 = TYK2 (Homo sapiens, UniProt P29597); test: Biochemical potency on Tyk2, TR-FRET (LANCE Ultra kinase assay); settings: ATP corresponding to Km; cell-free; read-out: TYK2 inhibitory activity (pIC50) (converted)
# Experimental: (§1) The objective of this study was to assess the capability of compounds to inhibit all 4 JAK isoforms activity in a cell-free environment. Assay for JAK 1, JAK 2, JAK 3 and TYK2 were performed by Time-resolved fluorescence resonance energy transfer (TR-FRET) technology. It consists in the interaction of two labelled binding partners detected by the energy transfer from an excited donor to an acceptor dye and measurement of light emission by the acceptor dye. LANCE Ultra kinase assay was used. In presence of JAK 1, JAK 2, JAK 3 and TYK2 kinases and ATP (corresponding to Km), the ULight peptide substrate (LANCE Ulight-JAK-1 (Tyr1023) Peptide, Perkin Elmer, TRF0121) is phosphorylated. It is then captured by Eu-anti-phospho-substrate antibody (LANCE Eu-W1024 Anti-phosphotyrosine (PT66), Perkin Elmer, AD0069), which bring the Eu-chelate donor and ULight acceptor dyes into close proximity. Upon excitation at 320 nm, the Eu-chelate transfers its energy to the ULight dye, resulting in a fluorescent light emission at 665 nm.
# (§2) Serial dilutions of compounds in pure DMSO are prepared from 10 mM DMSO stock solutions. Compounds were tested in 384-well plate for 11 consecutive 5-fold dilutions starting from 20 μM highest concentration (20 μM-[…]). 200 nL of compound were transferred from mother plate to test plate by using Mosquito (TTP labtech). Assay was performed in 384-well Perkin Elmer test plate in 20 μL assay volume (kinase reaction) and 40 μL total volume (stopping reagent and antibody detection reagents). In 10 μL of substrate solution (peptide+ATP) 30/50/20/10 nM of peptide and 20/0.7/0.2/12 μM of ATP were added for JAK 1, JAK 2, JAK 3 and TYK2 respectively. 10 μL of enzyme solution was added to kinase reaction at these concentrations: 0.15/0.083/0.025/0.144 ng/μL of JAK 1, JAK 2, JAK 3 and TYK2 respectively. After shaking and 1.5 h of incubation at r.t., 20 μL of Stop (10 μL EDTA) and Detection mixture (10 μL Europium-anti-phospho antibody, final: 0.5 nM) were added. Reading was performed after 1 h of incubation on a En Vision 2104 reader (Perkin Elmer).
# (§3) Calculation of IC50 data, curves and QC analysis was performed by using Excel tool and GraphPadPrism software, v9. Briefly, individual concentration-effect curves are generated by plotting the logarithm of the tested concentration of tested compounds (X) vs. corresponding percent inhibition values (Y) using least squares (ordinary) fit. Best fit IC50 values are calculated using Log (inhibitor) vs. normalized response—Variable slope equation, where Y=100/(1+10^((LogIC50−X)*HillSlope)). QC criteria parameters (Z′, S:B, R2, HillSlope) were checked for every IC50 curve. Calculation of IC50 data, curves and QC analysis were made using Excel tools and GraphPadPrism software. QC criteria parameters: Z′≥0.5, Hill Slope range 0.5 to 5, S:B>2.
# JAK1 = JAK1 (Homo sapiens, UniProt P23458); test: Biochemical potency on JAK1, TR-FRET (LANCE Ultra kinase assay); settings: ATP corresponding to Km; cell-free; read-out: JAK1 inhibitory activity (pIC50) (converted)
# JAK1, sequence (P23458 whole entry): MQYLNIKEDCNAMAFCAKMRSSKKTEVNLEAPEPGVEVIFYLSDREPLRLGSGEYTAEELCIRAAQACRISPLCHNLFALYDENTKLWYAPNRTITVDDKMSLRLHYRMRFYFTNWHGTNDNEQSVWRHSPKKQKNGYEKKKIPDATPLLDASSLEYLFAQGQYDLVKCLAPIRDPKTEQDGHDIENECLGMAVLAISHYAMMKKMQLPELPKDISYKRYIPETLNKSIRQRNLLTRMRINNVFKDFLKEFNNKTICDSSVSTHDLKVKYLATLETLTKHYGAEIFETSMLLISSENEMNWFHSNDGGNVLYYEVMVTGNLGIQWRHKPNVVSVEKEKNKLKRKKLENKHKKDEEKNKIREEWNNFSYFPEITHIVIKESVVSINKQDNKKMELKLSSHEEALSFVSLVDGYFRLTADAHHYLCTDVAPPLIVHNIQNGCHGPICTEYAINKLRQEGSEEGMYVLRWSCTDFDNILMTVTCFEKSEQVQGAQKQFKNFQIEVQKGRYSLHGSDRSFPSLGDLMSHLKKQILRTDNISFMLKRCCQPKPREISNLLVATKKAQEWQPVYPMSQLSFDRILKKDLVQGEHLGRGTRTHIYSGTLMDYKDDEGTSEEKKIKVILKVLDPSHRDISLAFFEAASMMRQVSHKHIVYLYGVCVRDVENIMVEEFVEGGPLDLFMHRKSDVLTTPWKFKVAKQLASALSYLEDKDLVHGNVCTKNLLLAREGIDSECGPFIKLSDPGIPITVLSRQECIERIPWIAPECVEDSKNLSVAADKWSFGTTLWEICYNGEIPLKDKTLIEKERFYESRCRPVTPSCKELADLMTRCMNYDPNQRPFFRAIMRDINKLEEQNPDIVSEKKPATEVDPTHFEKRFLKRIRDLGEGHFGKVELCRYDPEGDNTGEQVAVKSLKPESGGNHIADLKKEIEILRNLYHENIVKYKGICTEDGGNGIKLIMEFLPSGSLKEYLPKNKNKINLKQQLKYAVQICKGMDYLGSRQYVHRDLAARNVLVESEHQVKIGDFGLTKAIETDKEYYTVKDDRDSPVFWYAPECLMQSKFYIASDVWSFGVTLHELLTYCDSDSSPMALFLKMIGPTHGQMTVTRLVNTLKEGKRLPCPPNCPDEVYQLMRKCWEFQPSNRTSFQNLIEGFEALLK
# Experimental: as §1, §2, §3
# [1] = system: pSTAT6 in BEAS-2B human cell line; test: Inhibition of IL-13 induced pSTAT6 in BEAS; assay type: cell-based; settings: for pIC50: Homo sapiens, BEAS-2B, 0.5 h, IL-13 trigger, 30 min, parent compound; for Fold difference parent vs predicted acid metabolite: ratio=IC50 predicted acid metabolite/IC50 ester
# Experimental: BEAS-2B human cell line was seeded (100.000 cells/well) and incubated for 48 h at 37° C., 5% CO2, 95% humidity. Compounds were added and incubated 30 min followed by IL-13 as trigger. After 30 min incubation, cells were lysed and pSTAT6 determined by Fastscan phospho-stat6 (Tyr641) sandwich ELISA kit (cell signaling). Inhibitors were tested at 11 consecutive 5-fold dilutions starting from 10 μM (10 μM-[…]) in duplicate. Calculation of IC50 data, curves and QC analysis were made using Excel tools and GraphPadPrism software. QC criteria parameters: Z′≥0.35, Hill Slope range 0.5 to 5, S:B>2.
# JAK3 = biological target: T1, JAK3 (Homo sapiens, UniProt P52333); test: Biochemical potency on JAK3, TR-FRET (LANCE Ultra kinase assay); settings: ATP corresponding to Km; cell-free; read-out: JAK3 inhibitory activity (pIC50) (converted)
# T1 sequence (P52333 1-1124): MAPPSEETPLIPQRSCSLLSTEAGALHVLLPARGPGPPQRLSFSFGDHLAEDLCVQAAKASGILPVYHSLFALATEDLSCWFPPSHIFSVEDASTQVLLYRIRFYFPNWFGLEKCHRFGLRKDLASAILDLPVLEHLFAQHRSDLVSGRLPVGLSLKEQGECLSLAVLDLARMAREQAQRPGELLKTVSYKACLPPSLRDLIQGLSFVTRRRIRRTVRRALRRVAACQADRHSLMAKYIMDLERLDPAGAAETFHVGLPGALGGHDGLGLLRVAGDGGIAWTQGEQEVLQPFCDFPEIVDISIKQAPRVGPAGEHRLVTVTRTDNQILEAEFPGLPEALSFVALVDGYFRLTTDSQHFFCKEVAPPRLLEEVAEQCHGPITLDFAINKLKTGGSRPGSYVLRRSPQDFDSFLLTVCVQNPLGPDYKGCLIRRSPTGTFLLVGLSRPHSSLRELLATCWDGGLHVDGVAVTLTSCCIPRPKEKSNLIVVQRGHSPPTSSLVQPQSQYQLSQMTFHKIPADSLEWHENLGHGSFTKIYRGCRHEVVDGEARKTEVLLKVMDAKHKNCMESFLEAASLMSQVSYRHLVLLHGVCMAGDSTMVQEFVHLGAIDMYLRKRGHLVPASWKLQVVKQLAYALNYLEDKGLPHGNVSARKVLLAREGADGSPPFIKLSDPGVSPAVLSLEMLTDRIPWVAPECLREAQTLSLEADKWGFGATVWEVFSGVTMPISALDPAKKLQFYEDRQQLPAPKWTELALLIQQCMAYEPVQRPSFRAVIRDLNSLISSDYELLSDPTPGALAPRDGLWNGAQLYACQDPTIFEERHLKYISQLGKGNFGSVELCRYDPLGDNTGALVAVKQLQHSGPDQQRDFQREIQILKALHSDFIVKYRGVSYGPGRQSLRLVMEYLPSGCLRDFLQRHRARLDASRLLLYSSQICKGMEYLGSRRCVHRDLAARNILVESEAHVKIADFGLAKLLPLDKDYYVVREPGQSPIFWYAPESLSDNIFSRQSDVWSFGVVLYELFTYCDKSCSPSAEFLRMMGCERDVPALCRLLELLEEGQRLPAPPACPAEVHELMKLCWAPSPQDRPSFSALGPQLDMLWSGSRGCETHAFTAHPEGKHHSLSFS
# Experimental: as §1, §2, §3
# JAK2 = JAK2 (Homo sapiens, UniProt O60674); test: Biochemical potency on JAK2, TR-FRET (LANCE Ultra kinase assay); settings: ATP corresponding to Km; cell-free; read-out: JAK2 inhibitory activity (pIC50) (converted)
# JAK2, sequence (O60674 whole entry): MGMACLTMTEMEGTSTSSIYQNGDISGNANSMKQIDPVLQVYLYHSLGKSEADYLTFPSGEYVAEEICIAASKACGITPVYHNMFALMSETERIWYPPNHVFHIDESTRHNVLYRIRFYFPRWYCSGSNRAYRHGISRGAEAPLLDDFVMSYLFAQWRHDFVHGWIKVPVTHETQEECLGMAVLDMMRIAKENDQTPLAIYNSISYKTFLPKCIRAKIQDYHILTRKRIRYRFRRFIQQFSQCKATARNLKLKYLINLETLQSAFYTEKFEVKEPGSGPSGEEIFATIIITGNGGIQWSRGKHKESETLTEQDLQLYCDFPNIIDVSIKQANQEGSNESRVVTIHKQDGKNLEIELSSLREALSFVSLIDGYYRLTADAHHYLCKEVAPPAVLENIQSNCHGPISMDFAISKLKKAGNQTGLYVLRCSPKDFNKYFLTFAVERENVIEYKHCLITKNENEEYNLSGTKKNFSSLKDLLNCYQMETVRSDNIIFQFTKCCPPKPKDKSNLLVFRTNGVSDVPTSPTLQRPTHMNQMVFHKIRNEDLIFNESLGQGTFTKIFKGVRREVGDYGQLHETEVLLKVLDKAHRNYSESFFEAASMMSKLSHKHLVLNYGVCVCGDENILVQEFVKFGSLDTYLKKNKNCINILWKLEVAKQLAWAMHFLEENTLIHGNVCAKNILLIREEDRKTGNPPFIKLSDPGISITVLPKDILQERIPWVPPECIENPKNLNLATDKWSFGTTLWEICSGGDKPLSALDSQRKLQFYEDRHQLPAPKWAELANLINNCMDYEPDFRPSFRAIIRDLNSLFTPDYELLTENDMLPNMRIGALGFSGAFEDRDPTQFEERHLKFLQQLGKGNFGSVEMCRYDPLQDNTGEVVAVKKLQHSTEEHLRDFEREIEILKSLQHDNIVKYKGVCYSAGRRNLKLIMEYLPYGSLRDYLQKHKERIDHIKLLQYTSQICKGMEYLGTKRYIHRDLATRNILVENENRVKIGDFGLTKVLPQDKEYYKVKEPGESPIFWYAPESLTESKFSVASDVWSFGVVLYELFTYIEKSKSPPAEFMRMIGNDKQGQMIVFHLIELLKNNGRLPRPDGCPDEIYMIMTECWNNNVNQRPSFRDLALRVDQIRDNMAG
# Experimental: as §1, §2, §3
# TYK2, sequence (P29597 whole entry, canonical isoform): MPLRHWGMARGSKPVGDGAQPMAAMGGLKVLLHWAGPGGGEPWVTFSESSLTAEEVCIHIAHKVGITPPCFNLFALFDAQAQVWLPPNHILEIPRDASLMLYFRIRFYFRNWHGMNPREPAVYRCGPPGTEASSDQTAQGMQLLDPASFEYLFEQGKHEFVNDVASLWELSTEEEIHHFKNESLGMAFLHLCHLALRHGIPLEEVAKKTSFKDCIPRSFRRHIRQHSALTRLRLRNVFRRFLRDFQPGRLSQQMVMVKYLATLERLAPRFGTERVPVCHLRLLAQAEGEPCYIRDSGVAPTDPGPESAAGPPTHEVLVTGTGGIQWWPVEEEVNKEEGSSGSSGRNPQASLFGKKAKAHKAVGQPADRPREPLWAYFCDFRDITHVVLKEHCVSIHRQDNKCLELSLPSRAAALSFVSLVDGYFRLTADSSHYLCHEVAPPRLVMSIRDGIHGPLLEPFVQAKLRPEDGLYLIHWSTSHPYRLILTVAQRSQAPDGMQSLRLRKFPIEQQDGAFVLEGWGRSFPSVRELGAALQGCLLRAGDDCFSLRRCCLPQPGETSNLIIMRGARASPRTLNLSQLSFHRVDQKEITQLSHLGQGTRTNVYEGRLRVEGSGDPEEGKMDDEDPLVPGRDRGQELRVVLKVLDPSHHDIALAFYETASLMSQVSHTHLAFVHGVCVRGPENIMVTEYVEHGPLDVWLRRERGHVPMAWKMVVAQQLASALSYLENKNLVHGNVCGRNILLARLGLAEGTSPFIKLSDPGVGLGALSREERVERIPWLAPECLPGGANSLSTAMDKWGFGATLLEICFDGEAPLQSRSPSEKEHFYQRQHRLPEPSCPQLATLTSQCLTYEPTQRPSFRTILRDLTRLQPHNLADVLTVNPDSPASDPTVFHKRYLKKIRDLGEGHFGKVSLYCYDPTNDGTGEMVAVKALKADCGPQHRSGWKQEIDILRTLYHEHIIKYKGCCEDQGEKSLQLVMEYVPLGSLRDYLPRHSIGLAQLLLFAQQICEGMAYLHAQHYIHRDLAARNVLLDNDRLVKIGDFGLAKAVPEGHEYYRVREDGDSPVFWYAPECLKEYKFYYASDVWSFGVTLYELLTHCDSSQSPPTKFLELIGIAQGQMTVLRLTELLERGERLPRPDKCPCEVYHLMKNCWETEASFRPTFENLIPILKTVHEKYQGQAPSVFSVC
compound,measurement,setting,value
"COc1cc2c(cc1-n1nc(C(=O)NCCN3CCC(C(=O)O[C@@H]4CN(C)C[C@H]4F)CC3)c3cnc(-c4cnn5cccnc45)cc31)OCCN2 (relative stereo) [Example 51, (3R*,4R*)-4-fluoro-1-methylpyrrolidin-3-yl 1-(2-(1-(6-methoxy-3,4-dihydro-2H-benzo[b][1,4]oxazin-7-yl)-6-(pyrazolo[1,5-a]pyrimidin-3-yl)-1H-pyrazolo[4,3-c]pyridine-3-carboxamido)ethyl)piperidine-4-carboxylate]",IC50,TYK2,5.01 to 50.1 nM
same,IC50,JAK1,≤ 5.01 nM
same,pIC50,[1],7.30 to 8.30
same,Fold difference parent vs predicted acid metabolite,[1],kkk (200>ratio≥100)
same,IC50,JAK3,≤ 5.01 nM
same,IC50,JAK2,≤ 5.01 nM
"CCOC(=O)C1CCN(CCNC(=O)c2nn(-c3cc4c(cc3OC)NCCS4)c3cc(-c4cnn5cccnc45)ncc23)CC1 [Example 1, ethyl 1-(2-(1-(6-methoxy-3,4-dihydro-2H-benzo[b][1,4]thiazin-7-yl)-6-(pyrazolo[1,5-a]pyrimidin-3-yl)-1H-pyrazolo[4,3-c]pyridine-3-carboxamido)ethyl)piperidine-4-carboxylate]",IC50,TYK2,≤ 5.01 nM
same,IC50,JAK1,≤ 5.01 nM
same,pIC50,[1],≥ 8.30
same,Fold difference parent vs predicted acid metabolite,[1],kk (100>ratio≥10)
same,IC50,JAK3,≤ 5.01 nM
same,IC50,JAK2,≤ 5.01 nM
"CCOC(=O)[C@H]1C[C@@H](OC(=O)Nc2nn(-c3cc4c(cc3OC)NCCS4)c3cc(-c4cnn5cccnc45)ncc23)C1 [Example 2, ethyl (1s,3s)-3-(((1-(6-methoxy-3,4-dihydro-2H-benzo[b][1,4]thiazin-7-yl)-6-(pyrazolo[1,5-a]pyrimidin-3-yl)-1H-pyrazolo[4,3-c]pyridin-3-yl)carbamoyl)oxy)cyclobutane-1-carboxylate]",IC50,TYK2,5.01 to 50.1 nM
same,IC50,JAK1,≤ 5.01 nM
same,pIC50,[1],7.30 to 8.30
same,IC50,JAK3,≤ 5.01 nM
same,IC50,JAK2,≤ 5.01 nM
"CCOC(=O)COC(=O)Nc1nn(-c2cc3c(cc2OC)NCCS3)c2cc(-c3cnn4cccnc34)ncc12 [Example 3, ethyl 2-(((1-(6-methoxy-3,4-dihydro-2H-benzo[b][1,4]thiazin-7-yl)-6-(pyrazolo[1,5-a]pyrimidin-3-yl)-1H-pyrazolo[4,3-c]pyridin-3-yl)carbamoyl)oxy)acetate]",IC50,TYK2,5.01 to 50.1 nM
same,IC50,JAK1,≤ 5.01 nM
same,pIC50,[1],≥ 8.30
same,Fold difference parent vs predicted acid metabolite,[1],kkkk (ratio≥200)
same,IC50,JAK3,≤ 5.01 nM
same,IC50,JAK2,≤ 5.01 nM
"CCOC(=O)C1CCN(CCOC(=O)Nc2nn(-c3cc4c(cc3OC)NCCS4)c3cc(-c4cnn5cccnc45)ncc23)CC1 [Example 4, ethyl 1-(2-(((1-(6-methoxy-3,4-dihydro-2H-benzo[b][1,4]thiazin-7-yl)-6-(pyrazolo[1,5-a]pyrimidin-3-yl)-1H-pyrazolo[4,3-c]pyridin-3-yl)carbamoyl)oxy)ethyl)piperidine-4-carboxylate]",IC50,TYK2,≤ 5.01 nM
same,IC50,JAK1,≤ 5.01 nM
same,pIC50,[1],≥ 8.30
same,Fold difference parent vs predicted acid metabolite,[1],kk (100>ratio≥10)
same,IC50,JAK3,≤ 5.01 nM
same,IC50,JAK2,≤ 5.01 nM
"COCC(C)(C)OC(=O)C1CCN(CCNC(=O)c2nn(-c3cc4c(cc3OC)NCCO4)c3cc(-c4cnn5cccnc45)ncc23)CC1 [Example 5, 1-methoxy-2-methylpropan-2-yl 1-(2-(1-(6-methoxy-3,4-dihydro-2H-benzo[b][1,4]oxazin-7-yl)-6-(pyrazolo[1,5-a]pyrimidin-3-yl)-1H-pyrazolo[4,3-c]pyridine-3-carboxamido)ethyl)piperidine-4-carboxylate]",IC50,TYK2,5.01 to 50.1 nM
same,IC50,JAK1,≤ 5.01 nM
same,pIC50,[1],≥ 8.30
same,Fold difference parent vs predicted acid metabolite,[1],kkkk (ratio≥200)
same,IC50,JAK3,≤ 5.01 nM
same,IC50,JAK2,≤ 5.01 nM
"CCCOC(=O)CN(C)CCNC(=O)c1nn(-c2cc3c(cc2OC)NCCO3)c2cc(-c3cnn4cccnc34)ncc12 [Example 6, propyl N-(2-(1-(6-methoxy-3,4-dihydro-2H-benzo[b][1,4]oxazin-7-yl)-6-(pyrazolo[1,5-a]pyrimidin-3-yl)-1H-pyrazolo[4,3-c]pyridine-3-carboxamido)ethyl)-N-methylglycinate]",IC50,TYK2,> 50.1 nM
same,IC50,JAK1,5.01 to 50.1 nM
same,pIC50,[1],7.30 to 8.30
same,IC50,JAK3,≤ 5.01 nM
same,IC50,JAK2,≤ 5.01 nM
"COc1cc2c(cc1-n1nc(C(=O)OCCCN(C)C)c3cnc(-c4cnn5cccnc45)cc31)SCCN2 [Example 7, 3-(dimethylamino)propyl 1-(6-methoxy-3,4-dihydro-2H-benzo[b][1,4]thiazin-7-yl)-6-(pyrazolo[1,5-a]pyrimidin-3-yl)-1H-pyrazolo[4,3-c]pyridine-3-carboxylate]",IC50,TYK2,≤ 5.01 nM
same,IC50,JAK1,≤ 5.01 nM
same,pIC50,[1],≥ 8.30
same,IC50,JAK3,≤ 5.01 nM
same,IC50,JAK2,≤ 5.01 nM
"COc1cc2c(cc1-n1nc(C(=O)OCCCN3CCN(C)CC3)c3cnc(-c4cnn5cccnc45)cc31)SCCN2 [Example 8, 3-(4-methylpiperazin-1-yl)propyl 1-(6-methoxy-3,4-dihydro-2H-benzo[b][1,4]thiazin-7-yl)-6-(pyrazolo[1,5-a]pyrimidin-3-yl)-1H-pyrazolo[4,3-c]pyridine-3-carboxylate]",IC50,TYK2,≤ 5.01 nM
same,IC50,JAK1,≤ 5.01 nM
same,pIC50,[1],7.30 to 8.30
same,IC50,JAK3,≤ 5.01 nM
same,IC50,JAK2,≤ 5.01 nM
